Like-named read-outs stand apart in the source and are kept apart here.
What was measured:
Test in all cases: Test F pre-/postemergence plant response
Type in all cases: in vivo
[1] = tested on: soybean (Glycine max); details: Glycine max, scale 0 to 100, read-out: Plant response rating, Soybean
Method in brief: (§1)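 Visual rating versus untreated controls, 0–100 scale (0 = no effect, 100 = complete control), taken 14–21 d after treatment in greenhouse. Pre: seeds planted in silt loam, soil treated. Post: plants 2–18 cm, 1–4 leaves. Compound formulated in non-phytotoxic solvent plus surfactant.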

[2] = tested on: surinam grass (Brachiaria decumbens); details: Urochloa decumbens, pre-emergence, scale 0 to 100, read-out: Plant response rating, Surinam Grass
Method in brief: as §1

[3] = tested on: Italian ryegrass (Lolium multiflorum); details: Lolium multiflorum, scale 0 to 100, read-out: Plant response rating, Ryegrass, Italian; for pest or weed control at 16 g/ha: 16 g ai/ha; for pest or weed control at 31 g/ha: 31 g ai/ha; for pest or weed control at 125 g/ha: 125 g ai/ha
Method in brief: as §1

[4] = tested on: fall panicum (Panicum dichotomiflorum); details: Panicum dichotomiflorum, scale 0 to 100, read-out: Plant response rating, Panicum, Fall
Method in brief: as §1

[5] = tested on: Brazilian crabgrass (Digitaria horizontalis); details: Digitaria horizontalis, scale 0 to 100, read-out: Plant response rating, Crabgrass, Brazil
Method in brief: as §1

[6] = tested on: arrowleaf sida (Sida rhombifolia); details: Sida rhombifolia, scale 0 to 100, read-out: Plant response rating, Arrowleaf Sida
Method in brief: as §1

[7] = tested on: large (Lg) crabgrass (Digitaria sanguinalis); details: Digitaria sanguinalis, pre-emergence, scale 0 to 100, read-out: Plant response rating, Crabgrass, Large
Method in brief: as §1

[8] = tested on: corn (Zea mays); details: Zea mays, scale 0 to 100
Method in brief: as §1

[9] = tested on: kochia (Kochia scoparia); details: Bassia scoparia, pre-emergence, scale 0 to 100, read-out: Plant response rating, Kochia
Method in brief: as §1

[10] = tested on: wild poinsettia (Euphorbia heterophylla); details: Euphorbia heterophylla, scale 0 to 100, read-out: Plant response rating, Poinsettia, Wild
Method in brief: as §1

[11] = tested on: goosegrass (Eleusine indica); details: Eleusine indica, pre-emergence, scale 0 to 100, read-out: Plant response rating, Goosegrass
Method in brief: as §1

[12] = tested on: nightshade (eastern black nightshade, Solanum ptycanthum); details: Solanum, pre-emergence, scale 0 to 100, read-out: Plant response rating, Nightshade
Method in brief: as §1

[13] = tested on: green foxtail (Setaria viridis); details: Setaria viridis, pre-emergence, scale 0 to 100, read-out: Plant response rating, Foxtail, Green
Method in brief: as §1

[14] = tested on: sandbur (southern sandbur, Cenchrus echinatus); details: Cenchrus echinatus, scale 0 to 100, read-out: Plant response rating, Sandbur
Method in brief: as §1

[15] = tested on: palmer pigweed (Amaranthus palmeri); details: Amaranthus palmeri, scale 0 to 100, read-out: Plant response rating, Pigweed, Palmer
Method in brief: as §1

[16] = tested on: lambsquarters (Chenopodium album); details: Chenopodium album, pre-emergence, scale 0 to 100, read-out: Plant response rating, Lambsquarters
Method in brief: as §1

[17] = post-emergence, 8 g ai/ha Postemergence
[18] = post-emergence, 16 g ai/ha Postemergence
[19] = post-emergence, 31 g ai/ha Postemergence
[20] = post-emergence, 62 g ai/ha Postemergence
[21] = post-emergence, 125 g ai/ha Postemergence
[22] = pre-emergence, 8 g ai/ha Preemergence
[23] = pre-emergence, 16 g ai/ha Preemergence
[24] = pre-emergence, 31 g ai/ha Preemergence
[25] = pre-emergence, 125 g ai/ha Preemergence
[26] = pre-emergence, 62 g ai/ha Preemergence

## FC(F)c1cc(-c2ccccc2Oc2ncc(Br)cn2)no1 [Compound 62, 5-bromo-2-[2-[5-(difluoromethyl)-3-isoxazolyl]phenoxy]pyrimidine]
[1]; [17]
  plant injury at 8 g/ha: 10%
[1]; [18]
  plant injury at 16 g/ha: 20%
[1]; [19]
  plant injury at 31 g/ha: 40%
[1]; [20]
  plant injury at 62 g/ha: 65%
[1]; [21]
  plant injury at 125 g/ha: 85%
[1]; [22]
  plant injury at 8 g/ha: 0%
[1]; [23]
  plant injury at 16 g/ha: 0%
[1]; [24]
  plant injury at 31 g/ha: 0%
[1]; [25]
  plant injury at 125 g/ha: 40%
[1]; pre-emergence, Preemergence
  plant injury at 62 g/ha: 10%
[2]; 8 g ai/ha Preemergence
  pest or weed control at 8 g/ha: 0%
[2]; 16 g ai/ha Preemergence
  pest or weed control at 16 g/ha: 0%
[2]; 31 g ai/ha Preemergence
  pest or weed control at 31 g/ha: 15%
[2]; 125 g ai/ha Preemergence
  pest or weed control at 125 g/ha: 10%
[2]; Preemergence
  pest or weed control at 62 g/ha: 15%
[3]; [17]
  pest or weed control at 8 g/ha: 0%
[3]; post-emergence, Postemergence
  pest or weed control at 16 g/ha: 0%
  pest or weed control at 31 g/ha: 0%
  pest or weed control at 125 g/ha: 10%
[3]; post-emergence, 62 g ai/ha, Postemergence
  pest or weed control at 62 g/ha: 10%
[3]; [22]
  pest or weed control at 8 g/ha: 0%
[3]; pre-emergence, Preemergence
  pest or weed control at 16 g/ha: 0%
  pest or weed control at 31 g/ha: 0%
  pest or weed control at 125 g/ha: 40%
  pest or weed control at 62 g/ha: 0%
[4]; [17]
  pest or weed control at 8 g/ha: 0%
[4]; [18]
  pest or weed control at 16 g/ha: 0%
[4]; [19]
  pest or weed control at 31 g/ha: 5%
[4]; [20]
  pest or weed control at 62 g/ha: 10%
[4]; [21]
  pest or weed control at 125 g/ha: 60%
[4]; [22]
  pest or weed control at 8 g/ha: 0%
[4]; [23]
  pest or weed control at 16 g/ha: 0%
[4]; [24]
  pest or weed control at 31 g/ha: 0%
[4]; [25]
  pest or weed control at 125 g/ha: 100%
[4]; pre-emergence, Preemergence
  pest or weed control at 62 g/ha: 95%
[5]; [17]
  pest or weed control at 8 g/ha: 0%
[5]; [18]
  pest or weed control at 16 g/ha: 0%
[5]; [19]
  pest or weed control at 31 g/ha: 10%
[5]; [20]
  pest or weed control at 62 g/ha: 15%
[5]; [21]
  pest or weed control at 125 g/ha: 10%
[5]; [22]
  pest or weed control at 8 g/ha: 0%
[5]; [23]
  pest or weed control at 16 g/ha: 0%
[5]; [24]
  pest or weed control at 31 g/ha: 75%
[5]; [26]
  pest or weed control at 62 g/ha: 100%
[5]; [25]
  pest or weed control at 125 g/ha: 100%
[6]; [17]
  pest or weed control at 8 g/ha: 65%
[6]; [18]
  pest or weed control at 16 g/ha: 80%
[6]; [19]
  pest or weed control at 31 g/ha: 95%
[6]; [20]
  pest or weed control at 62 g/ha: 98%
[6]; [21]
  pest or weed control at 125 g/ha: 98%
[6]; [22]
  pest or weed control at 8 g/ha: 0%
[6]; [23]
  pest or weed control at 16 g/ha: 20%
[6]; [24]
  pest or weed control at 31 g/ha: 70%
[6]; [26]
  pest or weed control at 62 g/ha: 95%
[6]; [25]
  pest or weed control at 125 g/ha: 100%
[7]; 8 g ai/ha Preemergence
  pest or weed control at 8 g/ha: 0%
[7]; 16 g ai/ha Preemergence
  pest or weed control at 16 g/ha: 0%
[7]; 31 g ai/ha Preemergence
  pest or weed control at 31 g/ha: 25%
[7]; 62 g ai/ha Preemergence
  pest or weed control at 62 g/ha: 70%
[7]; 125 g ai/ha Preemergence
  pest or weed control at 125 g/ha: 98%
[8]; [17]
  Corn plant response rating (crop injury, 0 = no effect, 100 = complete kill) at 8 g/ha: 0%
[8]; [18]
  Corn plant response rating (crop injury, 0 = no effect, 100 = complete kill) at 16 g/ha: 0%
[8]; [19]
  Corn plant response rating (crop injury, 0 = no effect, 100 = complete kill) at 31 g/ha: 0%
[8]; [20]
  Corn plant response rating (crop injury, 0 = no effect, 100 = complete kill) at 62 g/ha: 5%
[8]; [21]
  Corn plant response rating (crop injury, 0 = no effect, 100 = complete kill) at 125 g/ha: 10%
[8]; [22]
  Corn plant response rating (crop injury, 0 = no effect, 100 = complete kill) at 8 g/ha: 0%
[8]; [23]
  Corn plant response rating (crop injury, 0 = no effect, 100 = complete kill) at 16 g/ha: 0%
[8]; [24]
  Corn plant response rating (crop injury, 0 = no effect, 100 = complete kill) at 31 g/ha: 0%
[8]; [26]
  Corn plant response rating (crop injury, 0 = no effect, 100 = complete kill) at 62 g/ha: 0%
[8]; [25]
  Corn plant response rating (crop injury, 0 = no effect, 100 = complete kill) at 125 g/ha: 0%
[9]; 8 g ai/ha Preemergence
  pest or weed control at 8 g/ha: 10%
[9]; 31 g ai/ha, Preemergence
  pest or weed control at 31 g/ha: 20%
[9]; 125 g ai/ha, Preemergence
  pest or weed control at 125 g/ha: 95%
[9]; Preemergence
  pest or weed control at 62 g/ha: 35%
[10]; [17]
  pest or weed control at 8 g/ha: 25%
[10]; [18]
  pest or weed control at 16 g/ha: 35%
[10]; [19]
  pest or weed control at 31 g/ha: 40%
[10]; [20]
  pest or weed control at 62 g/ha: 50%
[10]; [21]
  pest or weed control at 125 g/ha: 50%
[10]; [22]
  pest or weed control at 8 g/ha: 0%
[10]; [23]
  pest or weed control at 16 g/ha: 0%
[10]; [24]
  pest or weed control at 31 g/ha: 30%
[10]; [25]
  pest or weed control at 125 g/ha: 35%
[10]; pre-emergence, Preemergence
  pest or weed control at 62 g/ha: 25%
[11]; 8 g ai/ha Preemergence
  pest or weed control at 8 g/ha: 0%
[11]; 16 g ai/ha Preemergence
  pest or weed control at 16 g/ha: 0%
[11]; 31 g ai/ha Preemergence
  pest or weed control at 31 g/ha: 0%
[11]; 125 g ai/ha Preemergence
  pest or weed control at 125 g/ha: 75%
[11]; Preemergence
  pest or weed control at 62 g/ha: 5%
[12]; 8 g ai/ha Preemergence
  pest or weed control at 8 g/ha: 0%
[12]; 16 g ai/ha Preemergence
  pest or weed control at 16 g/ha: 0%
[12]; 31 g ai/ha Preemergence
  pest or weed control at 31 g/ha: 70%
[12]; 125 g ai/ha Preemergence
  pest or weed control at 125 g/ha: 100%
[12]; Preemergence
  pest or weed control at 62 g/ha: 98%
[13]; 8 g ai/ha Preemergence
  pest or weed control at 8 g/ha: 0%
[13]; 16 g ai/ha, Preemergence
  pest or weed control at 16 g/ha: 0%
[13]; 31 g ai/ha, Preemergence
  pest or weed control at 31 g/ha: 10%
[13]; 125 g ai/ha, Preemergence
  pest or weed control at 125 g/ha: 90%
[13]; Preemergence
  pest or weed control at 62 g/ha: 40%
[14]; [17]
  pest or weed control at 8 g/ha: 0%
[14]; [18]
  pest or weed control at 16 g/ha: 0%
[14]; [19]
  pest or weed control at 31 g/ha: 0%
[14]; [20]
  pest or weed control at 62 g/ha: 0%
[14]; [21]
  pest or weed control at 125 g/ha: 0%
[14]; [22]
  pest or weed control at 8 g/ha: 0%
[14]; [23]
  pest or weed control at 16 g/ha: 0%
[14]; [24]
  pest or weed control at 31 g/ha: 0%
[14]; [25]
  pest or weed control at 125 g/ha: 35%
[14]; pre-emergence, Preemergence
  pest or weed control at 62 g/ha: 0%
[15]; [17]
  pest or weed control at 8 g/ha: 90%
[15]; [18]
  pest or weed control at 16 g/ha: 70%
[15]; [19]
  pest or weed control at 31 g/ha: 95%
[15]; [20]
  pest or weed control at 62 g/ha: 100%
[15]; [21]
  pest or weed control at 125 g/ha: 100%
[15]; [22]
  pest or weed control at 8 g/ha: 10%
[15]; [23]
  pest or weed control at 16 g/ha: 80%
[15]; [24]
  pest or weed control at 31 g/ha: 75%
[15]; [25]
  pest or weed control at 125 g/ha: 100%
[15]; pre-emergence, Preemergence
  pest or weed control at 62 g/ha: 100%
[16]; 8 g ai/ha Preemergence
  pest or weed control at 8 g/ha: 70%
[16]; 16 g ai/ha, Preemergence
  pest or weed control at 16 g/ha: 90%
[16]; 31 g ai/ha, Preemergence
  pest or weed control at 31 g/ha: 95%
[16]; 125 g ai/ha, Preemergence
  pest or weed control at 125 g/ha: 100%
[16]; Preemergence
  pest or weed control at 62 g/ha: 95%
